Experimental findings from patent US20210177814A1, “USE OF GUANABENZ OR DERIVATES THEREOF FOR THE TREATMENT OF TYPE I IFN-DEPENDENT PATHOLOGIES” (INSERM (Institut National de la Santé et de la Recherche …, priority 2018, published 2021) are described below.

The assay concerns the target T1, TLR9 (Mus musculus, UniProt Q9EQU3).
T1 construct: from tissue; host or cells: whole animal: C57BL/6, FVB and FVB GADD34ΔC/ΔC mice
T1 sequence (Q9EQU3 26-1032): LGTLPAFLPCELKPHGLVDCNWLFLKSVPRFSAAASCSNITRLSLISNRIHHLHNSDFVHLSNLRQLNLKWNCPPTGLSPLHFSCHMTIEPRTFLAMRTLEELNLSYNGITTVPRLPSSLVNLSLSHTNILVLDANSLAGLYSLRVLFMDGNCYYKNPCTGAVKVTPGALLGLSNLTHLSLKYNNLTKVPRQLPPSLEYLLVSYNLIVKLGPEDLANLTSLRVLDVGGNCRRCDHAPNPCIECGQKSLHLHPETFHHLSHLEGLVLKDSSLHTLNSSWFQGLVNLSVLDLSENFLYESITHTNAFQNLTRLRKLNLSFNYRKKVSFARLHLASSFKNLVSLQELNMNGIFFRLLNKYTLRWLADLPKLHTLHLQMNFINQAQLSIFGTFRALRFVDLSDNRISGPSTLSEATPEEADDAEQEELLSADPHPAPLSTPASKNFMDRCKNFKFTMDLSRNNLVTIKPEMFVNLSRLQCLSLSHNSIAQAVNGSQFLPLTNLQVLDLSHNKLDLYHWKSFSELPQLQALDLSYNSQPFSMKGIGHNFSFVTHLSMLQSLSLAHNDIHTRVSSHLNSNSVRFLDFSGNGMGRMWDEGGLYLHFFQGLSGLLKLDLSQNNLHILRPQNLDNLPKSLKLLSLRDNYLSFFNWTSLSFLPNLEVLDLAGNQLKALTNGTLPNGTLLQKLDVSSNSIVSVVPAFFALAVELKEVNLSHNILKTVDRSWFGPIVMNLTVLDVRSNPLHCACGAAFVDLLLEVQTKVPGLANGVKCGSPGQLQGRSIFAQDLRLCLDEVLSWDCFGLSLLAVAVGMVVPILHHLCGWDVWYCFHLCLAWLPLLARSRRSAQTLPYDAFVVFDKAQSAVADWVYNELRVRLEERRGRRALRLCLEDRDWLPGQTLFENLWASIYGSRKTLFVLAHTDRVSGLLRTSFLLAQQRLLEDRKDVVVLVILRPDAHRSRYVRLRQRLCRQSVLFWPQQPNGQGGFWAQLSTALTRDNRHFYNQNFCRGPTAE
The assay can be described thus: D-galN/CpG ODN 1826 cytokine shock model. In kind it is in vivo. On the procedure: WT and GADD34^ΔC/ΔC mice were injected with D-galN (20 mg/mouse), CpG ODN 1826 or PBS for control mice (50 μg/20 g), GBZ or clonidine (2 mg/kg). (A) Survival of C57/BL6 mice is represented as total percentage of survival after 48 h or in a Kaplan-Meier plot. (B) Survival of FVB (WT) and FVB GADD34^ΔC/ΔC mice is represented as total percentage of survival after 48 h or in a Kaplan-Meier plot. (C) The concentration of circulating TNF-α, IL-10 and IL-6 in C57/BL6 mice was measured after 1 h and/or 3 h of CpG ODN 1826. (D) Liver tissue damage and histology score were blindly determined by a professional anatomopathologist. Statistical significance was assigned on sample comparison by a one-way ANOVA, followed by Tukey range test and on the survival curve using log-rank test, followed by Benjamini-Yekutieli correction (* p<0.05; ** p<0.005; ***p<0.0005.).
Wild type female mice C57BL/6 of 8 weeks of age were injected i.p. with 2 mg/kg of GBZ, clonidine or PBS/DMSO. One hour later, they were injected i.p. with 20 mg/mouse of d-GalN and ODN 1826 50 μg/20 g (or PBS). Mice survival was checked every 12 hours for up to 48 hours. For some experiments, blood sera were collected 1 and 3 h after the injection of D-galN. The serum was used to measure circulating cytokines (TNFα, IL-6, IFNβ IL-10, IL-12). For some experiments, the liver was collected for immunohistochemistry after two days. For i.p. injections, 1 ml syringes and 25 gauge needles were used. Blood was collected from the cheek with a 18 gauge needle; for the TMPD model, no more than 200 μL were collected each time, respecting the ethic statement.
Mouse kidney and liver were fixed in 10% buffered formalin for 24 h, then the tissues were dehydrated and embedded in paraffin. Tissue sections of 3.5 μm were cut using the microtom Leica RM2245. Hematoxylin-eosin staining was effectuated automatically with Leica autostainer XL. Finally, the slides were mounted with entellan and kept at room temperature. Biopsies were analyzed by an anatomopathologist and the clinical score was assigned in a blinded way. Pictures were taken with Nikon Eclipse.
• a) Lobular inflammation • 0—no inflammation, 1—mild lobular inflammation (<10% of liver parenchyma), 2—moderate lobular inflammation (10-50% of liver parenchyma), 3—severe lobular inflammation (>50% of liver parenchyma) • b) Portal inflammation • 0—no portal inflammation, 1—mild portal inflammation (<⅓ of portal tracts), 2—moderate portal inflammation (approximately 50% of portal tracks), 3—severe portal inflammation (>⅔ of portal tracts) • Portal and lobular inflammation score are added=inflammation score • c) Necrosis • 0—No necrosis, 1—<10% necrosis of liver parenchyma, 2—10-25% necrosis of liver parenchyma, 3—25% necrosis of liver parenchyma • Inflammation score and necrosis score are added=Total histologic score

Setting [1] is: WT mice, 1 hour after CpG injection, 2 mg/kg.

Structures are written as SMILES.

`NC(N)=N/N=C/c1c(Cl)cccc1Cl` [GBZ, 2-(2,6-dichlorobenzylidene)-hydrazinecarboximidamide]: the “survival after 48 h” value (C57BL/6 WT mice, D-galN + CpG ODN 1826, compound 2 mg/kg i.p.) was “up to 70%”. In addition, under “CpG-induced lethality, GBZ 2 mg/kg”, the “liver cells survival (liver examination and histological scores)” value is reported as “little direct protective effect”. Where the note is “FVB GADD34ΔC/ΔC mice, D-galN + CpG, GBZ 2 mg/kg”, the survival entry is reported as “protected from death”. Further, the “decrease in efficiency of protection in GADD34ΔC/ΔC mice” value (GADD34ΔC/ΔC vs WT mice, GBZ 2 mg/kg) is listed as around 28%. Also, where the note is “WT mice after CpG injection, GBZ 2 mg/kg”, the “production of IL-10” value was “strongly increased”. Also, under setting [1], the “circulating IL-6 plasma concentration” value is reported as “strongly attenuated” and the “circulating TNF-α plasma concentration” value is “strongly attenuated”.
